# PubChem BioAssay (NCI)
#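 Compound exposure: 48 hours, 5 concentrations, 96-well plates. GI50 marks 50% less growth. At the TGI there is no net growth.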
# Key:
# Assay in all cases: NCI tumour cell line growth inhibition, 48 h
# [1] = test system: 786-0 renal
# [2] = test system: A498 renal
# [3] = test system: ACHN renal
# [4] = test system: BT-549 breast
# [5] = test system: CAKI-1 renal
# [6] = test system: COLO 205 colon
# [7] = test system: DU-145 prostate
# [8] = test system: HCT-15 colon
# [9] = test system: HOP-62 NSCLC
# [10] = test system: HOP-92 NSCLC
# [11] = test system: KM12 colon
# [12] = test system: M14 melanoma
# [13] = test system: MALME-3M melanoma
# [14] = test system: MDA-MB-231 breast
# [15] = test system: MDA-MB-435
# [16] = test system: MOLT-4 leukemia
# [17] = test system: NCI-H226 lung
# [18] = test system: NCI-H23 lung
# [19] = test system: NCI-H522 lung
# [20] = test system: NCI/ADR-RES ovarian
# [21] = test system: OVCAR-4 ovarian
# [22] = test system: OVCAR-5 ovarian
# [23] = test system: PC-3 prostate
# [24] = test system: RXF 393 renal
# [25] = test system: SF-295 CNS
# [26] = test system: SF-539 CNS
# [27] = test system: SK-MEL-2 melanoma
# [28] = test system: SK-MEL-28 melanoma
# [29] = test system: SK-MEL-5 melanoma
# [30] = test system: SK-OV-3 ovarian
# [31] = test system: SNB-75 CNS
# [32] = test system: SW-620 colon
# [33] = test system: TK-10 renal
# [34] = test system: U251 CNS
# [35] = test system: UACC-257 melanoma
# [36] = test system: UO-31 renal
# [37] = test system: CCRF-CEM leukemia
# [38] = test system: EKVX NSCLC
# [39] = test system: HCC-2998 colon
# [40] = test system: HL-60(TB) leukemia
# [41] = test system: HS 578T breast
# [42] = test system: IGROV1 ovarian
# [43] = test system: K-562 leukemia
# [44] = test system: LOX IMVI melanoma
# [45] = test system: MCF7 breast
# [46] = test system: NCI-H460 lung
# [47] = test system: OVCAR-3 ovarian
# [48] = test system: OVCAR-8 ovarian
# [49] = test system: RPMI-8226 leukemia
# [50] = test system: SF-268 CNS
# [51] = test system: SN12C renal
# [52] = test system: SNB-19 CNS
# [53] = test system: SR leukemia
# [54] = test system: T-47D breast
# [55] = test system: UACC-62 melanoma
smiles,measurement,setting,value
Clc1ccc2c(N/N=C/c3c[nH]c4ccccc34)ccnc2c1,GI50,[1],1410 nM
same,TGI,[1],2770 nM
same,GI50,[2],1510 nM
same,TGI,[2],2870 nM
same,GI50,[3],1870 nM
same,TGI,[3],3270 nM
same,GI50,[4],1550 nM
same,TGI,[4],2910 nM
same,GI50,[5],1680 nM
same,TGI,[5],3100 nM
same,GI50,[6],1790 nM
same,TGI,[6],3420 nM
same,GI50,[7],1530 nM
same,TGI,[7],2930 nM
same,GI50,[8],373 nM
same,TGI,[8],1490 nM
same,GI50,[9],1670 nM
same,TGI,[9],3250 nM
same,GI50,[10],539 nM
same,TGI,[10],2020 nM
same,GI50,[11],1790 nM
same,TGI,[11],3330 nM
same,GI50,[12],1730 nM
same,TGI,[12],3180 nM
same,GI50,[13],1760 nM
same,TGI,[13],3270 nM
same,GI50,[14],1650 nM
same,TGI,[14],3170 nM
same,GI50,[15],1750 nM
same,TGI,[15],3180 nM
same,GI50,[16],1050 nM
same,TGI,[16],3830 nM
same,GI50,[17],1880 nM
same,TGI,[17],4540 nM
same,GI50,[18],1620 nM
same,TGI,[18],3170 nM
same,GI50,[19],1770 nM
same,TGI,[19],3320 nM
same,GI50,[20],1930 nM
same,TGI,[20],4450 nM
same,GI50,[21],1830 nM
same,TGI,[21],3630 nM
same,GI50,[22],1630 nM
same,TGI,[22],3040 nM
same,GI50,[23],1550 nM
same,TGI,[23],2950 nM
same,GI50,[24],1470 nM
same,TGI,[24],2830 nM
same,GI50,[25],1820 nM
same,TGI,[25],3250 nM
same,GI50,[26],1720 nM
same,TGI,[26],3120 nM
same,GI50,[27],1830 nM
same,TGI,[27],3350 nM
same,GI50,[28],1810 nM
same,TGI,[28],3230 nM
same,GI50,[29],1750 nM
same,TGI,[29],3140 nM
same,GI50,[30],1670 nM
same,TGI,[30],3130 nM
same,GI50,[31],1380 nM
same,TGI,[31],2720 nM
same,GI50,[32],793 nM
same,TGI,[32],2200 nM
same,GI50,[33],2090 nM
same,TGI,[33],3570 nM
same,GI50,[34],837 nM
same,TGI,[34],2110 nM
same,GI50,[35],1650 nM
same,TGI,[35],3040 nM
same,GI50,[36],1320 nM
same,TGI,[36],2660 nM
Clc1ccc2oc3c(NCCCN4CCOCC4)c4ccccc4nc3c2c1,GI50,[1],1610 nM
same,TGI,[1],4450 nM
same,GI50,[2],4060 nM
same,TGI,[2],17000 nM
same,GI50,[3],880 nM
same,TGI,[3],2590 nM
same,GI50,[4],2370 nM
same,TGI,[4],5510 nM
same,GI50,[5],1400 nM
same,TGI,[5],3210 nM
same,GI50,[37],117 nM
same,TGI,[37],5480 nM
same,GI50,[7],2760 nM
same,TGI,[7],11500 nM
same,GI50,[38],2890 nM
same,TGI,[38],10100 nM
same,GI50,[39],1360 nM
same,TGI,[39],3110 nM
same,GI50,[8],1530 nM
same,TGI,[8],5330 nM
same,GI50,[40],295 nM
same,TGI,[40],1210 nM
same,GI50,[9],1720 nM
same,TGI,[9],4650 nM
same,GI50,[10],1320 nM
same,TGI,[10],5640 nM
same,GI50,[41],3430 nM
same,TGI,[41],22600 nM
same,GI50,[42],2790 nM
same,TGI,[42],22200 nM
same,GI50,[43],1560 nM
same,TGI,[43],10200 nM
same,GI50,[11],2490 nM
same,TGI,[11],> 100000 nM
same,GI50,[44],1270 nM
same,TGI,[44],2770 nM
same,GI50,[45],1170 nM
same,TGI,[45],3160 nM
same,GI50,[14],2270 nM
same,TGI,[14],8430 nM
same,GI50,[15],1660 nM
same,TGI,[15],3350 nM
same,GI50,[16],534 nM
same,TGI,[16],12700 nM
same,GI50,[17],2200 nM
same,TGI,[17],6200 nM
same,GI50,[46],1180 nM
same,TGI,[46],3380 nM
same,GI50,[20],1010 nM
same,TGI,[20],5550 nM
same,GI50,[47],3290 nM
same,TGI,[47],34700 nM
same,GI50,[22],1830 nM
same,TGI,[22],5280 nM
same,GI50,[48],1820 nM
same,TGI,[48],5100 nM
same,GI50,[23],1780 nM
same,TGI,[23],3990 nM
same,GI50,[49],2120 nM
same,TGI,[49],5050 nM
same,GI50,[24],1410 nM
same,TGI,[24],2800 nM
same,GI50,[50],2320 nM
same,TGI,[50],> 100000 nM
same,GI50,[25],2760 nM
same,TGI,[25],11300 nM
same,GI50,[26],1560 nM
same,TGI,[26],2920 nM
same,GI50,[27],3000 nM
same,TGI,[27],8790 nM
same,GI50,[28],1720 nM
same,TGI,[28],3160 nM
same,GI50,[29],4150 nM
same,TGI,[29],15700 nM
same,GI50,[30],3230 nM
same,TGI,[30],17100 nM
same,GI50,[51],1600 nM
same,TGI,[51],6360 nM
same,GI50,[52],3480 nM
same,TGI,[52],20000 nM
same,GI50,[31],1770 nM
same,TGI,[31],5880 nM
same,GI50,[53],1690 nM
same,TGI,[53],8900 nM
same,GI50,[32],839 nM
same,TGI,[32],3210 nM
same,GI50,[54],3060 nM
same,TGI,[54],18900 nM
same,GI50,[33],4610 nM
same,TGI,[33],20700 nM
same,GI50,[35],1780 nM
same,TGI,[35],3500 nM
same,GI50,[55],2170 nM
same,TGI,[55],5070 nM
same,GI50,[36],1340 nM
same,TGI,[36],3680 nM
